1 substance from publication PMC2673211, “Nitric oxide activates ATP-sensitive potassium channels in mammalian sensory neurons: action by direct S-nitrosylation” (Molecular Pain, 2009) can be followed below.

The target of test [1] is T1, SUR1-C717S/Kir6.2 channels (Rattus norvegicus, UniProt P70673+Q09429, C717S).
T1 construct: A full-length Kir cDNA and a full-length SUR cDNA were subcloned into the mammalian expression vector; expressed in transfected cells; host or cells: COS7 cells, pcDNA3.1(-) vectors, GFP cDNA co-transfected as a separate reporter
T1 sequence (Q09429 whole entry C717S): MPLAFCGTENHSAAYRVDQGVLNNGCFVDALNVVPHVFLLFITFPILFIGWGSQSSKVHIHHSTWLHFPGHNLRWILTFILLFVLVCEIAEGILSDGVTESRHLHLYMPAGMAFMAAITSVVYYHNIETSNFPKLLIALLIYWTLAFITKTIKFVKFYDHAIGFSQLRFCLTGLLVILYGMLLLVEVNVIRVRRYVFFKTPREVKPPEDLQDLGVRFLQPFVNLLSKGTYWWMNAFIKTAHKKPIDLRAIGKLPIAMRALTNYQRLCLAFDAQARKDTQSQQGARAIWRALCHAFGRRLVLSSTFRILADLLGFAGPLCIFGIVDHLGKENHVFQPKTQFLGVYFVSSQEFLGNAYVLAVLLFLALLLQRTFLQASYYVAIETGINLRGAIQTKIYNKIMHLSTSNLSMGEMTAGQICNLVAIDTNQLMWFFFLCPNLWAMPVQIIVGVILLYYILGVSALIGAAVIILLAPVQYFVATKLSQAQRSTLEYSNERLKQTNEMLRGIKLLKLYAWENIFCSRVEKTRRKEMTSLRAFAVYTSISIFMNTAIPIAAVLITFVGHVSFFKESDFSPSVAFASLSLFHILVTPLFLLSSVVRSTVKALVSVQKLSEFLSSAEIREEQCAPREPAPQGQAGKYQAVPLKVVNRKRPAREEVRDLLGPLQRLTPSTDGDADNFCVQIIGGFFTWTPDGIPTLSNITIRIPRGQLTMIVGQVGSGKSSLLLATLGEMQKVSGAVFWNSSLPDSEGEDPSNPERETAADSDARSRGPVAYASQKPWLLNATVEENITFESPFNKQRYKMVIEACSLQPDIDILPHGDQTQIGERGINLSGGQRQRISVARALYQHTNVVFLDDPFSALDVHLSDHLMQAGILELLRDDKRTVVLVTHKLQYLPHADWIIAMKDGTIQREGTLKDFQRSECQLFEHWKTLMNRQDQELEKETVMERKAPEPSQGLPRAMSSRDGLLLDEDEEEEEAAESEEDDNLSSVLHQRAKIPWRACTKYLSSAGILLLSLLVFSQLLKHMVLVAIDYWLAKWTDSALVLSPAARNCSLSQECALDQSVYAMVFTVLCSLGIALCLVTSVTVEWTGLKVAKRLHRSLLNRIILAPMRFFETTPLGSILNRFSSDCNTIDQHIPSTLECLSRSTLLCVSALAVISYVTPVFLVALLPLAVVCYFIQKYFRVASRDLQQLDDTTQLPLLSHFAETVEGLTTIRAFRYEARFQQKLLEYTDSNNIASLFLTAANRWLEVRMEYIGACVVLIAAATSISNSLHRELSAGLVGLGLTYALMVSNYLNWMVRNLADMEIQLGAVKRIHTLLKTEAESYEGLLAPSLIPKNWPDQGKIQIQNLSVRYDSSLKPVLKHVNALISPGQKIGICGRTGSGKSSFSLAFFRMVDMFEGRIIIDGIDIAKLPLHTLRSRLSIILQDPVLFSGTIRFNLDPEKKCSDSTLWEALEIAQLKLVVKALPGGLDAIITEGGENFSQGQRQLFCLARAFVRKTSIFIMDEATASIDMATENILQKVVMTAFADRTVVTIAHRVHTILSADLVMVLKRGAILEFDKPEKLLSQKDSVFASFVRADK
T1 sequence (P70673 whole entry): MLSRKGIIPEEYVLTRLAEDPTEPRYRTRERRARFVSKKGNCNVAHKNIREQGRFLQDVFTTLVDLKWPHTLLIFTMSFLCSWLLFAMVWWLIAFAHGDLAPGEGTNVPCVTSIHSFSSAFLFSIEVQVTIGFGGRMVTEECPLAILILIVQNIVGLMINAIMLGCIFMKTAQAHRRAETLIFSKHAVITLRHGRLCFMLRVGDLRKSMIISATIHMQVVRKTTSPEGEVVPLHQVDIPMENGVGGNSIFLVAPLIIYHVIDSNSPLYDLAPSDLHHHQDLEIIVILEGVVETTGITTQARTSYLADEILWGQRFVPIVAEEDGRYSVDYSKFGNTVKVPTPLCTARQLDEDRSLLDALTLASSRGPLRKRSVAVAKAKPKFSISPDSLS
Description: Inside-out patch recording of mutated channels expressed in COS7 cells. Type of test: biochemical. The protocol:
KATP channel-deficient COS7 cells were plated at a density of 3 × 10^5/dish (35 mm in diameter) and cultured in Dulbecco's modified Eagle's medium supplemented with 10% fetal calf serum. Rat Kir6.2 (GenBank X97041) and rat SUR1 (GenBank X97279) cDNAs were used for expression study. A truncated form of Kir6.2 lacking the last 36 amino acids at the C-terminus was obtained by polymerase chain reaction amplification. Polymerase chain reaction products were cloned into the pCR3.1 vector by using the TA cloning system (Invitrogen Corp., Carlsbad, CA, USA) and then cloned into the pcDNA3.1 (-) vector (Invitrogen Corp.) for mammalian expression. Point mutation of cysteine at position 717 (C717), C806, C1378, C1446, and C1491 within SUR1 to serine (C717S, C806S, C1378S, C1446S, and C1491S) was performed by using the Site-Directed Mutagenesis system (Invitrogen Corp.). All cDNA products were sequenced by using the BigDye terminator cycle sequencing kit and an ABI PRISM 377 DNA sequencer (Applied Biosystems, Foster City, CA) to confirm the sequence. A full-length Kir cDNA and a full-length SUR cDNA were subcloned into the mammalian expression vector pcDNA3.1 (-). For electrophysiological recordings, either wild-type or mutated pcDNA3.1 (-) Kir6.2 alone (1 μg), or pcDNA3.1 (-) Kir6.2 (1 μg) plus pcDNA3.1 (-) SUR1 (3 μg) were transfected into COS7 cells with green fluorescent protein cDNA as a reporter gene by using lipofectamine and Opti-MEN 1 reagents (Life Technologies Inc., Rockville, MD) according to the manufacturer's instructions. After transfection, cells were cultured at 37°C with 95% air and 5% CO2 for 48–72 h before being subjected to electrophysiological recordings.
(§1) We recorded current passing through single channels in inside-out or cell-attached patch configurations. In cell-attached patches, both bath and pipette (extracellular) solutions were composed of the following: 140 mM KCl, 10 mM HEPES, 5.5 mM dextrose, and 1 mM EGTA. In inside-out patches, the bath (intracellular) solution contained 140 mM KCl, 1.2 mM MgCl2, 10 mM HEPES, 1.5 mM EGTA and 5.5 mM dextrose. The pipette (extracellular) solution was of the same composition as that used in cell-attached recordings. The pH of all solutions was adjusted to 7.4 with KOH. Osmolality was adjusted approximately to 300 mOsm/l by adding sucrose if necessary. We pulled patch micropipettes from borosilicate glass capillaries using a Flaming/Brown micropipette puller, model P-97 (Sutter, San Rafael, CA) and flame polished them with a microforge polisher (Narishige, Tokyo, Japan) prior to use. Their resistance ranged between 3 and 6 MΩ when filled with the internal solution, and placed into the recording solutions.
We recorded single channel currents at room temperature (20–25°C) using an Axon CNS Multiclamp 700B amplifier, digitized them using an analog-to-digital converter (Axon CNS DigiData 1440A; Axon Instruments, Foster, CA), and stored them into a PC. Sampling frequency of single-channel data was 5 KHz with a low-pass filter (1 KHz). We used pClamp version 10.2 software (Axon Instruments) for data acquisition and analysis. […] Channel open probability (Po) was determined from the ratios of the area under the peaks in the amplitude histograms fitted by a Gaussian distribution. We calculated channel activity as NPo (where N is the number of observed channels in the patch) from data samples of either 30 s (in inside-out recordings), or 60 s (in cell-attached recordings), in the steady state. […]

Test [2] deals with T2, KATP channels in large DRG neurons (Rattus norvegicus, UniProt P70673+Q09429).
T2 construct: native KATP channels in large DRG neurons; endogenous in cells; host or cells: acutely dissociated large-diameter neurons from rat L4/L5 dorsal root ganglia (sham-operated or spinal nerve ligated animals)
T2 sequence (Q09429 whole entry): as the sequence (Q09429 whole entry C717S) above, with S717C counted along it
T2 sequence (P70673 whole entry): as the sequence (P70673 whole entry) above
As to the kind of experiment: Cell-attached single-channel patch-clamp recording of KATP channel activity (NPo). Conditions: for NPo steady-state value 10 minutes after application of SNAP: SNAP 100 μM, n = 7. It is filed as cell-based.
Excerpt: We harvested control (L4 and L5) or axotomized (L5) ganglia, from control (SS) or hyperalgesic rats (SNL) respectively, between the 17th and 28th postoperative days. We sacrificed animals by decapitation under deep isoflurane anesthesia, excised ganglia through a lumbar incision, and at the same time confirmed accuracy of initial surgery.
For patch-clamp recordings, we placed excised DRG into separate 35 mm Petri dishes containing cold, oxygenated, Hanks Balanced Salt Solution (Gibko, Invitrogen, Grand Islan, NY), and minced them with iris scissors. We dissociated ganglia enzymatically in a solution containing 0.25 ml 0.05% w:v liberase blendzyme 2 (Roche Diagnostics Corp., Indianapolis, IN) and 0.25 ml DMEM/F12 with glutaMAX (Dulbecco's modified Eagle's medium F12; Gibco, Invitrogen Corp., Carlsbad, CA) in an incubator at 37°C for 30 min. […] Finally, we plated cells onto poly-l-lysine-coated 12-mm glass coverslips (Deutsche Spiegelglas; Carolina Biologic Supply, Burlington, NC), kept them in a humidified incubator at 37°C with 95% air and 5% CO2, and studied them within 3–8 h of dissociation.
We visualized plated neurons using an inverted Nikon Diaphot 300 microscope with Hoffman modulation optic system. […] Large neuronal somata, roughly correspond to large, myelinated Aβ fibers.
as §1
Sampling frequency of single-channel data was 5 KHz with a low-pass filter (1 KHz). […] We applied a conventional 50% current amplitude threshold level criterion to determine open events. Channel open probability (Po) was determined from the ratios of the area under the peaks in the amplitude histograms fitted by a Gaussian distribution. We calculated channel activity as NPo (where N is the number of observed channels in the patch) from data samples of either 30 s (in inside-out recordings), or 60 s (in cell-attached recordings), in the steady state. In inside-out recordings, NPo of the KATP channels was normalized to the baseline NPo value obtained before test drugs at bathing solution without ATP (indicating relative channel activity).

As for S-nitroso-N-acetylpenicillamine [SNAP], in test [1] (SNAP 1 mM in the presence of 1 mM [ATP]i), the “effect on recombinant channel activity” value is on record as “significantly activated”. Moreover, in test [1] (SNAP, n = 8, p < 0.02 vs. wild type), the “potency in activating the channel compared with the wild-type SUR1/Kir6.2 channel” value is recorded as “significantly less potent”. Further, the “washout period after which effects were reversible” value in test [2] (SNAP, data not shown) was in the range of 2 to 5 min. Further, the “NPo steady-state value 10 minutes after application of SNAP” value was 0.31 ± 0.09 in test [2] (SNL neurons) and 0.27 ± 0.07 in test [2] (SS neurons). Moreover, the “concentration at which KATP channel activation reaches a saturating plateau” value in test [2] (SS and SNL neurons) was no less than 100 µM.
